Measurements taken from patent US7226754B2, “Kinase Wee1 fusion protein compositions, nucleotide sequences, expression systems, and methods of use” (The Scripps Research Institute, priority 1998, dated 2007).

Key:
[1] = test system: Schizosaccharomyces pombe; experiment: Replication checkpoint: progression through mitosis of synchronous cultures in the presence of HU; assay type: cell-based; details: 12 mM HU
Experimental: FIGS. 5A–5B are graphs which illustrate that replication checkpoint is abolished in Cds1 chk1 cells as described in Example 2. […] Progression through mitosis in the presence of 12 mM HU was monitored by scoring binucleate or septated cells. The cds1 chk1 double mutant and rad3 cells underwent mitosis in the presence of HU, whereas division was arrested in control strains (wild-type, Cds1 and chk1 single mutants).
(§1) The cell lysates were obtained from a variety of strains of S. pombe cells having the following genotypes: PR109, wild-type; NB2117, cds1::ura4+; NB2118, cds1:2HA6His:ura4+; NR1826, rad3::ura4+; OM591, cdc22-M45; NR1593, rad1::ura4+; NR1592,chk1::ura4+; BF1758, nmt1:GST:chk1:leu1+; BF1916, nmt1:GST:cds1:leu1+; OM2173, mik1:2HA6His:ura4+; OM2183, mik1:2HA6His:ura4+cds1::ura4+; PR712, mik1::ura4+; and BF2115, cds1::ura4+chk1::ura4+. All strains were leu1-32 ura4-D18. All nmt1 promoter constructs were integrated at the leu1-32 locus. Growth media and general methods for S. pombe have been described [Moreno et al, Meth. Enzymol., 194:795 (1991)]. Unless otherwise indicated, yeast cultures were grown in YES medium at 30 C. […]
Cells were first grown in YES (yeast extract and glucose) medium to an OD600 of 1.0 and then treated with HU (12 mM) for 90 min at 30 C. […] Cells were scored for progression through mitosis by microscopic observation. […]

Cds1 [2] = experiment: Binding of Cds1HAHIS from cell lysates to GST:Wee1 (immunoblot); assay type: cell-based, Schizosaccharomyces pombe; details: lysates of Cds1HAHIS cells treated 3.5 hr with HU vs mock-treated
Source text: FIGS. 3A–3D illustrate that HU stimulates Cds1 kinase activity, binding of Cds1 to GST:Wee1^70 in lysates and accumulation of Mik1 as described in Example 2. FIG. 3A is a photograph of an analysis of proteins which illustrates that HU stimulates Cds1 binding to GST:Wee1^70. A culture of cells expressing Cds1^HAHIS from the cds1 genomic locus was split and treated for 3.5 hr with HU or mock-treated. The cultures were split again and samples processed for Ni^2+-NTA purification of Cds1^HAHIS in denaturing conditions or purification of proteins that bind GST:Wee1 proteins in nondenaturing conditions. After extensive washing, samples were resolved by 10% SDS-polyacrylamide gel electrophoresis and subjected to immunoblot analysis.
HU may increase the abundance of Cds1, or it may make Cds1 competent to associate with Wee1, or perhaps the replication checkpoint enhances the kinase activity of Cds1. Cells expressing Cds1^HAHIS were treated with HU or mock-treated; lysates were made and precipitated with GST:Wee1 proteins. Association of Cds1^HAHIS with GST:Wee1 was detected in lysates from cells treated with HU, whereas no Cds1^HAHIS associated with GST:Wee1 in mock-treated samples (FIG. 3A).

Cds1 [3] = experiment: Cds1HAHIS autophosphorylation assay after HU treatment of cells; assay type: cell-based, Schizosaccharomyces pombe; details: Cds1HAHIS purified from HU or mock-treated cells
Source text: FIG. 3B is a photograph of an analysis of proteins which illustrates that HU activates Cds1 kinase activity. In a separate experiment Cds1^HAHIS was purified in native conditions and assayed for autophosphorylation activity (upper panel). Immunoblot analysis confirmed that similar amounts of Cds1HAHIS were recovered in the HU and mock-treated samples (lower panel).
Cds1^HAHIS was also purified from HU or mock-treated cells and assayed in an autophosphorylation assay. Phosphorylation of Cds1 was increased in samples from cells treated HU (FIG. 3B). Similar results were obtained using GST:Wee1^70 as a substrate. Thus HU apparently both activates Cds1 as a kinase and stimulates binding to Wee1.

[4] = test system: Schizosaccharomyces pombe; experiment: HU sensitivity (survival) of S. pombe strains; assay type: cell-based; details: for sensitivity to killing by HU: 12 mM HU
Experimental: FIG. 3D is a photograph of cell cultures which illustrates that Mikl is important for survival of HU treatment. Serial dilutions or wild-type and mik1 cells were plated in YES medium supplemented with 0 or 6 mM HU and incubated for 2 days at 30° C.
Cells were first grown in YES (yeast extract and glucose) medium to an OD600 of 1.0 and then treated with HU (12 mM) for 90 min at 30 C. Synchronous cells were then obtained by centrifugal elutriation with a Beckman JE-5.0 elutriation rotor. These cells were diluted to an OD600 of 0.3 in YES containing 12 mM HU and grown at 30 C. for a further 4 hr. Cells were scored for progression through mitosis by microscopic observation. HU sensitivity studies were carried out with cells grown to an OD600 of 0.3 in YES medium and then diluted to 13,000 cells/ml in YES media containing HU (12 mM), followed by growth at 30 C. for a further 8 hr. Samples (75 μl) were taken at regular intervals, plated onto YES plates and grown for 4 days at 30 C. to determine survival.

Mik1 = experiment: Mik1HAHIS abundance in HU-treated cells (immunoblot); assay type: cell-based, Schizosaccharomyces pombe; details: cells treated 4 hrs with 12 mM HU vs mock-treated
Experimental: FIG. 3C is a photograph of an analysis of proteins which illustrates that Cds1 and Rad3-dependent increase in Mik1 abundance in HU-treated cells. Wild-type, Cds1 and rad3 cells in which genomic mik1 encoded Mik1^HAHIS protein were incubated for 4 hrs in YES at 25° C. with 12 mM HU or mock-treated. Mik1HARIS protein was purified by Ni^2+-NTA purification in denaturing conditions and detected by immunoblotting with antibodies to HA.
Phosphorylation of Wee1 by Cds1 may play a role in the DNA replication checkpoint. However, wee1 mutants arrest division in response to HU (Enoch et al, Cell, 60:665, 1990), thus another protein that controls Cdc2 Tyr^15 phosphorylation must also be regulated by the replication checkpoint. The kinase Mik1 phosphorylates Cdc2 on Tyr^15 (Lundgren et al, Cell, 64:1111, 1991), therefore the abundance of Mik1 was monitored in HU-treated cells using a strain expressing Mik1^HAHIS from the genomic locus. […] The abundance of mik1 mRNA was unchanged in HU-treated cells, thus HU must influence Mik1 synthesis or turnover. […] Mik1 is a dose-dependent inhibitor of mitosis (Lundgren et al, Cell, 64:1111, 1991), thus the increase of Mik1 abundance in HU-treated cells should help to enforce the checkpoint.

GST:Wee1 = GST:Wee1 phosphorylation by associated kinase from lysates of HU-treated cells; assay type: cell-based, Schizosaccharomyces pombe; details: lysates of cells treated with 12 mM HU, 1 hr time course at 30° C.
Experimental: FIG. 1B is a photograph of an analysis of proteins from cells that were treated with 12 mM HU for a 1 hr time course at 30° C. Cell lysates were incubated with GST:Wee1 proteins bound to GSH-Sepharose. The GSH-Sepharose was washed and assayed for associated kinase activity. The positions of GST:Wee1^152 and GST:Wee1^70 following 12% SDS-polyacrylamide gel electrophoresis are shown.
The GST:Wee1^152 and GST:Wee1^70 proteins prepared in Example 1 were used to study yeast cellular functions. To that end, the isolated proteins were bound to glutathione (GSH)-Sepharose and mixed with cell lysates from the fission yeast Schizosaccharomyces pombe (S. pombe) harvested at intervals during incubation with hydroxyurea (HU).
as §1, with “locus.” for “locus. Growth media and general methods for S. pombe have been described [Moreno et al, Meth. Enzymol., 194:795 (1991)]. Unless otherwise indicated, yeast cultures were grown in YES medium at 30 C.”
The proteins bound to GSH-Sepharose were washed, incubated with [gamma-^32P]ATP and analyzed by SDS-polyacrylamide gel electrophoresis (FIG. 1B). […]

SMILES: NC(=O)NO [HU, hydroxyurea]
- cell division in the presence of HU ([1]; Cds1 chk1 double mutant cells): underwent division
- cell division in the presence of HU ([1]; wild-type cells, Cds1 and chk1 single mutants): arrested division
- association of Cds1 with GST:Wee1 (Cds1 [2]): enhanced association
- phosphorylation of Cds1 (autophosphorylation) (Cds1 [3]): increased
- sensitivity to killing by HU ([4]; Cds1 cells): moderately sensitive
- sensitivity to killing by HU ([4]; Cds1 chk1 double mutant cells): acutely sensitive to killing
- sensitivity to HU ([4]; mik1 mutants, YES medium with 0 or 6 mM HU, 2 days at 30° C.): enhanced sensitivity
- sensitivity to killing by HU ([4]; wild-type and chk1 cells): not sensitive
- amount of Mik1HAHIS (Mik1): increased
- phosphorylation of GST:Wee1^152 and GST:Wee1^70 (GST:Wee1): increased
